Measurements as given in patent US10537601B2, “Method of isolating anti-viral ingredients from Baphicacanthus cusia, compositions comprising them and their medical use” (priority 2016, dated 2020).
Read-outs that look alike come from different tables or passages of the source.

Test system: influenza virus A/PR/8/34 (H1N1)
Assay: organism not typed
Assay type: cell-based
Conditions: read-out: IC50 (anti-viral activity, 50% inhibitory concentration)
[1] = MDCK cells infected with 100TCID50 of influenza A/PR/8/34 (H1N1), treatment for 48 h, Reed-Muench method

With `O=C1Nc2ccccc2O[C@@H]1O` [Compound of Formula 5, 2-hydroxy-1,4-benzoxazin-3-one] the IC50 [1] was over 200 µM.
In the case of `O=Cc1c[nH]c2ccccc12` [Compound of Formula 7, 1H-indole-3-carbaldehyde], the IC50 [1] is reported as 42 µM.
`O=C1COc2ccccc2N1` [Compound of Formula 9, 2H-1,4-benzoxazin-3-one] gave an IC50 [1] of over 200 µM.
`C=C(CO)[C@@H]1CC[C@]2(C)CC[C@]3(C)[C@H](CC[C@@H]4[C@@]5(C)CC[C@H](O)C(C)(C)C5CC[C@]43C)[C@@H]12` (stereo partly drawn) [Compound of Formula 19, lup-20(29)-en-3β, 30-diol] gave an IC50 (MDCK, 48 h) of 33.6 µM.
With `NC(=O)c1ncn([C@@H]2O[C@H](CO)[C@@H](O)[C@H]2O)n1` [ribavirin, reference compound] the IC50 [1] was 30.4 µM.
